Assay results taken from ChEMBL document CHEMBL1156703, “Antitumor studies -- part 2: structure-activity relationship study for flavin analogs including investigations on their in vitro antitumor assay and docking simulation into protein tyrosine kinase” (Eur J Med Chem, 2008).
Converted amounts (≈) assume the structure as drawn.

How the values were obtained:
Protein kinase C (PKC) = assay: Inhibition of rat brain protein kinase C
KB = assay: Growth inhibition of human KB cells by MTT assay; assay type: functional, cell-based

Row | Structure (SMILES) | IC50 (Protein kinase C (PKC)) [mg/L] | IC50 (KB) [mg/L]
1 | C[C@H]1CNCCN1S(=O)(=O)c1cccc2cnccc12 | 38.4 (≈ 132 µM) | 
2 | Cc1ccc2c(c1)cc1c(=O)nc(-c3ccccc3)nc-1n2C | 4.55 (≈ 15.1 µM) | 1.17 (≈ 3.88 µM)
3 | Cn1c2nc(N)nc(=O)c-2cc2ccccc21 | 14.8 (≈ 65.4 µM) | 
4 | CCCCCCCCCCCCn1c2nc(=O)[nH]c(=O)c-2cc2ccc(Cl)cc21 | > 100 | > 10
5 | CCn1c2nc(=O)n(C)c(=O)c-2cc2ccccc21 | 46.6 (≈ 183 µM) | > 10
6 | CCCCn1c2nc(=O)[nH]c(=O)c-2cc2ccccc21 | 89.7 (≈ 333 µM) | > 10
7 | CCCn1c2nc(=O)n(C)c(=O)c-2cc2ccccc21 | 46 (≈ 171 µM) | > 10
8 | CCn1c2nc(=O)[nH]c(=O)c-2cc2cc(C)ccc21 | 10 (≈ 39.2 µM) | > 10
9 | CCCCn1c2nc(=O)n(C)c(=O)c-2cc2ccccc21 | 23.9 (≈ 84.4 µM) | > 10
10 | Nc1ccn([C@@H]2O[C@H](CO)[C@@H](O)[C@@H]2O)c(=O)n1 [CYTARABINE] |  | 0.14 (≈ 0.576 µM)

Next, values leading:

Row | IC50 (Protein kinase C (PKC)) [mg/L] | IC50 (KB) [mg/L] | Structure (SMILES)
11 | 12.9 (≈ 42.8 µM) |  | CCn1c2nc(-c3ccccc3)nc(=O)c-2cc2ccccc21
12 | 3.54 (≈ 12.3 µM) |  | Cn1c2nc(-c3ccccc3)nc(=O)c-2cc2ccccc21
13 | > 100 | > 10 | O=c1nc2n(-c3ccccc3)c3ccccc3cc-2c(=O)[nH]1
14 | > 100 | > 10 | Cn1c(=O)nc2n(-c3ccccc3)c3ccccc3cc-2c1=O
15 | 60.1 (≈ 198 µM) | > 10 | Cn1c2nc(=O)n(-c3ccccc3)c(=O)c-2cc2ccccc21
16 | > 100 | > 10 | O=c1nc2n(-c3ccccc3)c3ccccc3cc-2c(=O)n1-c1ccccc1
17 |  | 2.53 (≈ 7.68 µM) | CCCCn1c2nc(-c3ccccc3)nc(=O)c-2cc2ccccc21
18 | 26.4 (≈ 83.2 µM) | > 10 | Cc1ccc2c(c1)cc1c(=O)n(C)c(=O)nc-1n2-c1ccccc1
19 | 53.3 (≈ 168 µM) | > 10 | CCn1c2nc(=O)n(-c3ccccc3)c(=O)c-2cc2ccccc21
